Patent US20170296491A1, “PHARMACEUTICAL COMPOSITIONS COMPRISING LEVODOPA AMIDE AND USES THEREOF” (priority 2015, published 2017)
Counter-ions that a name gives are not always drawn.

What was measured:
[1] = Stability of LDA-HCl 50 mg/ml in citrate or phosphate buffer, 4 days at 37° C., HPLC; type: physicochemical
Experimental: Liquid formulations were prepared by dissolving LDA-HCl, 50 mg/ml in buffer citrate or buffer phosphate at different pH levels (Table 2). The formulations were incubated 4 days at 37° C., their stability was evaluated by HPLC analysis at the end of the fourth day, and the recovery after 4 days at 37° C. was calculated compared to T=0.

[2] = Physical stability (visual) of LDA-HCl 50 mg/ml in water or buffers at room temperature; type: physicochemical; details: for Color at T = 24 h (RT): 50 mg/ml; for time physically stable at room temperature: 5% LDA-HCl and water or a buffer
Experimental: (§1) Liquid formulations were prepared by dissolving LDA-HCl, 50 mg/ml in water or different buffers (40 mM) at various pH levels. The physical stability of LDA was determined visually after 24 hours and 7 days (Table 3), and the chemical stability of LDA was determined by HPLC analysis (Table 4) after 24 h at room temperature (RT) and expressed as % recovery compared to t0.

[3] = Chemical stability (HPLC) of LDA-HCl 50 mg/ml in water or buffers after 24 h at room temperature; type: physicochemical
Experimental: as §1

[4] = Long term stability of LDA-HCl 200 mg/ml in citric buffer with NAC, 2 weeks at 37° C.; type: physicochemical
Experimental: Liquid formulation comprising LDA-HCl in citric buffer was prepared by dissolving 200 mg/ml LDA-HCl in 40 mM citric buffer with 0.05% N-acetylcysteine (NAC) as antioxidant. The formulation was incubated for 2 weeks at 37° C. The stability of LDA after 14 days at 37° C. was evaluated by HPLC analysis, and the recovery calculated compared to t0 (Table 5).

[5] = Physical stability of LDA-HCl solutions with or without added CD-Arg formulation; type: physicochemical; details: preferably pH >4.6
Experimental: HCl solutions at 3 different concentrations containing 0.3% Tween 80 were added to LDA to obtain solutions having a final LDA concentration of 200 mg/ml and a molar ratio of 1:0.89, 1:0.92 and 1:0.95 LDA:HCl. CD-Arg formulation (CD:Arg molar ratio 1:1.25) was prepared in Tween 80 0.3% and was added gradually under stirring to 4 volumes of each of the 3 LDA-HCl solutions. The physical stability of the solutions was evaluated (Table 15). As shown, the addition of CD to LDA-HCl solutions yielded stable solutions if added to LDA-HCl solutions having a pH>3.8, preferably pH >4.6.

[6] = Effect of preparation method and pH on stability of LDA-HCl/CD formulations; type: physicochemical; details: 5 days at room temperature (Table 7)
Experimental: LDA-HCl/CD formulations were prepared by the following methods, and were then tested for stability. Method 1. Carbidopa (CD, powder) [Teva Pharmaceuticals Ltd., Israel] was added to LDA-HCl solution. […] Precipitation occurred at room temperature. Method 2. Liquid CD formulations were prepared by weighting CD [Teva Pharmaceuticals Ltd., Israel] in a suitable container with different L-arginine [Merck] weights to obtain a final concentration of 0.8% CD (wet form, 0.75% dry form) in different molar ratios to arginine (Table 6). CD formulations were prepared as described in the International Publication No. WO 2010/134074. LDA-HCl (powder) was added to CD solutions to attain the final desired concentration of LDA-HCl/CD formulations. Method 3. CD solutions (40 mg/ml, prepared as described in the International Publication No. WO 2010/134074) were mixed with LDA-HCl solutions to attain the final desired concentration of LDA/CD formulations. The LDA-HCl formulations were prepared by dissolving 200, 160 or 120 mg/ml of LDA-HCl in 40 mM citric buffer. The chemical stability of 7 LDA-HCl/CD formulations was evaluated by HPLC analysis at t0 and after 5 days at room temperature. The recovery after 5 days at room temperature was calculated compared to t0 (Table 7).

[7] = Plasma pharmacokinetics of LDA and LD after oral LDA-HCl with and without CD in rats; type: in vivo; details: oral LDA-HCl 25 mg/kg with or without oral 10 mg/kg CD
Experimental: The purpose of this experiment was to determine the plasma pharmacokinetics of LDA and LD following oral administration of LD or LDA-HCl with and without CD in Wistar rats.
Wistar rats underwent fasting overnight prior to the dosing and received food only 2 hour post-dosing. The method used to dose orally was via oesophagotubage. Solutions were prepared as described above.

[8] = 200 mg/ml LDA-HCl, 40 mM citric buffer, 0.05% NAC

NC(=O)C(N)Cc1ccc(O)c(O)c1 (stereo not drawn) [LDA-HCl, 2-amino-3-(3,4-dihydroxyphenyl)propanamide]
stability at 37° C. ([1]; in buffer phosphate at pH>5.7): not stable
time stable at 37° C. ([1]; in citrate buffer): at least 4 days
Color at T = 24 h (RT) ([2]; Acetate pH 3.76): light yellow
Color at T = 24 h (RT) ([2]; Acetate pH 4.72): light yellow
Color at T = 24 h (RT) ([2]; Citrate pH 3.09): light yellow
Color at T = 24 h (RT) ([2]; Citrate pH 3.90): light yellow
Color at T = 24 h (RT) ([2]; Citrate pH 4.85): light yellow
Color at T = 24 h (RT) ([2]; Citrate pH 5.65): medium yellow
Color at T = 24 h (RT) ([2]; Histidine pH 6.20): medium yellow
Color at T = 24 h (RT) ([2]; Phosphate pH 6.03): medium yellow
Color at T = 24 h (RT) ([2]; Phosphate pH 6.32): medium yellow
Color at T = 24 h (RT) ([2]; Tartrate pH 3.84): light yellow
Color at T = 24 h (RT) ([2]; Tris pH 5.39): light yellow
Color at T = 24 h (RT) ([2]; Tris pH 6.14): medium yellow
Color at T = 24 h (RT) ([2]; Tris pH 6.61): medium yellow
Color at T = 24 h (RT) ([2]; Water for injection (WFI) pH 3.56): light yellow
Color at T = 24 h (RT) ([2]; Water for injection (WFI) pH 4.14): light yellow
Color at T = 24 h (RT) ([2]; Water for injection (WFI) pH 4.95): light yellow
Color at T = 24 h (RT) ([2]; Water for injection (WFI) pH 5.93): medium yellow
Color at T = 24 h (RT) ([2]; Water for injection (WFI) pH 6.44): medium yellow
Color at T = 24 h (RT) ([2]; Water for injection (WFI) pH 6.91): strong yellow
time physically stable at room temperature ([2]; all conditions tested): 24 h
time physically stable at room temperature ([2]; only formulations having a pH<5.5): at least 7 days
time chemically stable at room temperature ([3]; 5% LDA-HCl and water or a buffer, pH ranging between 3 to 7): at least 24 h
LDA (mg/ml) at T = 0 ([3]; Acetate pH 3.76): 52.09 mg/mL
LDA (mg/ml) at T = 24 hr (RT) ([3]; Acetate pH 3.76): 52.41 mg/mL
LDA (mg/ml) at T = 0 ([3]; Acetate pH 4.72): 52.66 mg/mL
LDA (mg/ml) at T = 24 hr (RT) ([3]; Acetate pH 4.72): 53.05 mg/mL
LDA (mg/ml) at T = 0 ([3]; Citrate pH 3.09): 51.84 mg/mL
LDA (mg/ml) at T = 24 hr (RT) ([3]; Citrate pH 3.09): 52.09 mg/mL
LDA (mg/ml) at T = 0 ([3]; Citrate pH 3.9): 51.34 mg/mL
LDA (mg/ml) at T = 24 hr (RT) ([3]; Citrate pH 3.9): 51.7 mg/mL
LDA (mg/ml) at T = 0 ([3]; Citrate pH 4.85): 52.05 mg/mL
LDA (mg/ml) at T = 24 hr (RT) ([3]; Citrate pH 4.85): 52.75 mg/mL
LDA (mg/ml) at T = 0 ([3]; Citrate pH 5.65): 51.24 mg/mL
LDA (mg/ml) at T = 24 hr (RT) ([3]; Citrate pH 5.65): 51.03 mg/mL
LDA (mg/ml) at T = 0 ([3]; Histidine pH 6.2): 51.27 mg/mL
LDA (mg/ml) at T = 24 hr (RT) ([3]; Histidine pH 6.2): 51.76 mg/mL
LDA (mg/ml) at T = 0 ([3]; Phosphate pH 6.03): 51.32 mg/mL
LDA (mg/ml) at T = 24 hr (RT) ([3]; Phosphate pH 6.03): 51.36 mg/mL
LDA (mg/ml) at T = 0 ([3]; Phosphate pH 6.32): 52.05 mg/mL
LDA (mg/ml) at T = 24 hr (RT) ([3]; Phosphate pH 6.32): 51.82 mg/mL
LDA (mg/ml) at T = 0 ([3]; Tartrate pH 3.84): 52.46 mg/mL
LDA (mg/ml) at T = 24 hr (RT) ([3]; Tartrate pH 3.84): 52.26 mg/mL
LDA (mg/ml) at T = 0 ([3]; Tris pH 5.39): 51.88 mg/mL
LDA (mg/ml) at T = 24 hr (RT) ([3]; Tris pH 5.39): 52.08 mg/mL
LDA (mg/ml) at T = 0 ([3]; Tris pH 6.14): 51.79 mg/mL
LDA (mg/ml) at T = 24 hr (RT) ([3]; Tris pH 6.14): 51.73 mg/mL
LDA (mg/ml) at T = 0 ([3]; Tris pH 6.61): 51.62 mg/mL
LDA (mg/ml) at T = 24 hr (RT) ([3]; Tris pH 6.61): 51.74 mg/mL
LDA (mg/ml) at T = 0 ([3]; WFI pH 3.56): 51.91 mg/mL
LDA (mg/ml) at T = 24 hr (RT) ([3]; WFI pH 3.56): 51.34 mg/mL
LDA (mg/ml) at T = 0 ([3]; WFI pH 4.14): 51.3 mg/mL
LDA (mg/ml) at T = 24 hr (RT) ([3]; WFI pH 4.14): 51.57 mg/mL
LDA (mg/ml) at T = 0 ([3]; WFI pH 4.95): 51.07 mg/mL
LDA (mg/ml) at T = 24 hr (RT) ([3]; WFI pH 4.95): 50.23 mg/mL
LDA (mg/ml) at T = 0 ([3]; WFI pH 5.93): 51.32 mg/mL
LDA (mg/ml) at T = 24 hr (RT) ([3]; WFI pH 5.93): 50.5 mg/mL
LDA (mg/ml) at T = 0 ([3]; WFI pH 6.44): 51.24 mg/mL
LDA (mg/ml) at T = 24 hr (RT) ([3]; WFI pH 6.44): 50.33 mg/mL
LDA (mg/ml) at T = 0 ([3]; WFI pH 6.91): 51.05 mg/mL
LDA (mg/ml) at T = 24 hr (RT) ([3]; WFI pH 6.91): 49.54 mg/mL
LDA content at T = 0 [4, 8]: 18.69
LDA content at T = 2 w, 37° C. [4, 8]: 19.01
time stable ([4]; high concentrations of LDA-HCl and NAC in citric buffer): at least 14 days
pH of LDA-HCl solution at which addition of CD yielded stable solutions [5]: > 3.8

C[C@@](Cc1ccc(O)c(O)c1)(NN)C(=O)O [CD, Carbidopa]
chemical stability in LDA-HCl/CD formulations [6]: pH-dependent
effect of CD on plasma concentration of LD [7]: increases
effect of CD on plasma concentrations of LDA [7]: no effect
